Measured values as given in PubChem BioAssay AID2060491 (Molecular Pharmacology Branch, DTP, NCI, 2025).

System: 857933-349-R-J2-PDC complex spheroids, viability
Test: Anticancer human tumor 857933-349-R-J2-PDC patient-derived colon adenocarcinoma cell line growth inhibition [GQUAD]
Conditions: for IC50: curve of first compound; for viability, T/C: stronger effect = lower value
In short: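 Viability of tumor cells grown as complex spheroids with endothelial and stromal cells, exposed to drug combinations. Top concentration at or near clinical Cmax (else 10 microM), diluted in half-log increments.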

[1] = second compound 0.0316 µM, first compound 0.0316 µM
[2] = second compound 0.0316 µM, first compound 0.316 µM
[3] = second compound 0.1 µM, first compound 0.0316 µM
[4] = second compound 0.1 µM, first compound 0.316 µM
[5] = second compound 0.316 µM, first compound 0.0316 µM
[6] = second compound 0.316 µM, first compound 0.316 µM
[7] = second compound 1 µM, first compound 0.0316 µM
[8] = second compound 1 µM, first compound 0.316 µM
[9] = second compound 3.16 µM, first compound 0.0316 µM
[10] = second compound 3.16 µM, first compound 0.316 µM
[11] = second compound 10 µM, first compound 0.0316 µM
[12] = second compound 10 µM, first compound 0.316 µM
[13] = second compound 0.0316 µM, first compound 0.1 µM
[14] = second compound 0.0316 µM, first compound 1 µM
[15] = second compound 0.0316 µM, first compound 3.16 µM
[16] = second compound 0.0316 µM, first compound 10 µM
[17] = second compound 0.1 µM, first compound 0.1 µM
[18] = second compound 0.1 µM, first compound 1 µM
[19] = second compound 0.1 µM, first compound 3.16 µM
[20] = second compound 0.1 µM, first compound 10 µM
[21] = second compound 0.316 µM, first compound 0.1 µM
[22] = second compound 0.316 µM, first compound 1 µM
[23] = second compound 0.316 µM, first compound 3.16 µM
[24] = second compound 0.316 µM, first compound 10 µM
[25] = second compound 1 µM, first compound 0.1 µM
[26] = second compound 1 µM, first compound 1 µM
[27] = second compound 1 µM, first compound 3.16 µM
[28] = second compound 1 µM, first compound 10 µM
[29] = second compound 3.16 µM, first compound 0.1 µM
[30] = second compound 3.16 µM, first compound 1 µM
[31] = second compound 3.16 µM, first compound 3.16 µM
[32] = second compound 3.16 µM, first compound 10 µM
[33] = second compound 10 µM, first compound 0.1 µM
[34] = second compound 10 µM, first compound 1 µM
[35] = second compound 10 µM, first compound 3.16 µM
[36] = second compound 10 µM, first compound 10 µM
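Further: spheroids exposed to compounds for one week before readout.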
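Wherever viability, T/C is given: percent viability relative to vehicle DMSO wells taken as 100%.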

CC[C@@]1(O)C(=O)OCc2c1cc1n(c2=O)Cc2cc3c(CN(C)C)c(O)ccc3nc2-1 + Cc1cnc(CNC(=O)c2c(=O)c3ccc(N4CCCN(C)CC4)nc3n3c2sc2ccccc23)cn1
IC50 (second compound 0.0316 µM): 87.2 nM
IC50 (second compound 0.1 µM): 68 nM
IC50 (second compound 0.316 µM): < 0.999 nM
IC50 (second compound 1 µM): < 0.999 nM
IC50 (second compound 3.16 µM): < 0.999 nM
IC50 (second compound 10 µM): < 0.999 nM
viability, T/C (second compound 0.0316 µM, first compound 0.000999 µM): 95.9%
viability, T/C (second compound 0.0316 µM, first compound 0.00316 µM): 96%
viability, T/C (second compound 0.0316 µM, first compound 0.00999 µM): 81.6%
viability, T/C [1]: 59.7%
viability, T/C (second compound 0.0316 µM, first compound 0.0999 µM): 53.1%
viability, T/C [2]: 32.2%
viability, T/C (second compound 0.1 µM, first compound 0.000999 µM): 58.2%
viability, T/C (second compound 0.1 µM, first compound 0.00316 µM): 65.6%
viability, T/C (second compound 0.1 µM, first compound 0.00999 µM): 61.4%
viability, T/C [3]: 60.3%
viability, T/C (second compound 0.1 µM, first compound 0.0999 µM): 44.8%
viability, T/C [4]: 19.6%
viability, T/C (second compound 0.316 µM, first compound 0.000999 µM): 23.6%
viability, T/C (second compound 0.316 µM, first compound 0.00316 µM): 20.7%
viability, T/C (second compound 0.316 µM, first compound 0.00999 µM): 18.6%
viability, T/C [5]: 22%
viability, T/C (second compound 0.316 µM, first compound 0.0999 µM): 14%
viability, T/C [6]: 5.04%
viability, T/C (second compound 1 µM, first compound 0.000999 µM): 4.85%
viability, T/C (second compound 1 µM, first compound 0.00316 µM): 5.23%
viability, T/C (second compound 1 µM, first compound 0.00999 µM): 4.03%
viability, T/C [7]: 3.48%
viability, T/C (second compound 1 µM, first compound 0.0999 µM): 2.83%
viability, T/C [8]: 2.11%
viability, T/C (second compound 3.16 µM, first compound 0.000999 µM): 2.58%
viability, T/C (second compound 3.16 µM, first compound 0.00316 µM): 2.92%
viability, T/C (second compound 3.16 µM, first compound 0.00999 µM): 2.38%
viability, T/C [9]: 2.13%
viability, T/C (second compound 3.16 µM, first compound 0.0999 µM): 1.91%
viability, T/C [10]: 1.66%
viability, T/C (second compound 10 µM, first compound 0.000999 µM): 1.38%
viability, T/C (second compound 10 µM, first compound 0.00316 µM): 1.91%
viability, T/C (second compound 10 µM, first compound 0.00999 µM): 1.93%
viability, T/C [11]: 2.78%
viability, T/C (second compound 10 µM, first compound 0.0999 µM): 0.44%
viability, T/C [12]: 0.24%

COc1cc(C2c3cc4c(cc3C(OC3OC5COC(C)OC5C(O)C3O)C3COC(=O)C23)OCO4)cc(OC)c1O (stereo not drawn) + Cc1cnc(CNC(=O)c2c(=O)c3ccc(N4CCCN(C)CC4)nc3n3c2sc2ccccc23)cn1
IC50 (second compound 0.0316 µM): 331 nM
IC50 (second compound 0.1 µM): 104 nM
IC50 (second compound 0.316 µM): < 31.6 nM
IC50 (second compound 1 µM): < 31.6 nM
IC50 (second compound 3.16 µM): < 31.6 nM
IC50 (second compound 10 µM): < 31.6 nM
viability, T/C [1]: 66.6%
viability, T/C [13]: 52.2%
viability, T/C [2]: 43.6%
viability, T/C [14]: 47%
viability, T/C [15]: 43.6%
viability, T/C [16]: 22.9%
viability, T/C [3]: 54.1%
viability, T/C [17]: 49.4%
viability, T/C [4]: 44.5%
viability, T/C [18]: 38.2%
viability, T/C [19]: 36.2%
viability, T/C [20]: 18.4%
viability, T/C [5]: 27.8%
viability, T/C [21]: 31.1%
viability, T/C [6]: 24.8%
viability, T/C [22]: 22.8%
viability, T/C [23]: 13.7%
viability, T/C [24]: 6.56%
viability, T/C [7]: 5.71%
viability, T/C [25]: 6.22%
viability, T/C [8]: 5.39%
viability, T/C [26]: 5.9%
viability, T/C [27]: 4.83%
viability, T/C [28]: 3.18%
viability, T/C [9]: 3.86%
viability, T/C [29]: 2.65%
viability, T/C [10]: 2.29%
viability, T/C [30]: 2.54%
viability, T/C [31]: 2.32%
viability, T/C [32]: 1.47%
viability, T/C [11]: 1.65%
viability, T/C [33]: 1.68%
viability, T/C [12]: 1.55%
viability, T/C [34]: 2.21%
viability, T/C [35]: 0.74%
viability, T/C [36]: 0.21%

COc1cccc2c1C(=O)c1c(O)c3c(c(O)c1C2=O)CC(O)(C(=O)CO)CC3OC1CC(N)C(O)C(C)O1 (stereo not drawn) + Cc1cnc(CNC(=O)c2c(=O)c3ccc(N4CCCN(C)CC4)nc3n3c2sc2ccccc23)cn1
IC50 (second compound 0.0316 µM): 398 nM
IC50 (second compound 0.1 µM): 212 nM
IC50 (second compound 0.316 µM): < 31.6 nM
IC50 (second compound 1 µM): < 31.6 nM
IC50 (second compound 3.16 µM): < 31.6 nM
IC50 (second compound 10 µM): < 31.6 nM
viability, T/C [1]: 72.5%
viability, T/C [13]: 51.6%
viability, T/C [2]: 54.1%
viability, T/C [14]: 35.8%
viability, T/C [15]: 3.33%
viability, T/C [16]: 0.11%
viability, T/C [3]: 53%
viability, T/C [17]: 57.9%
viability, T/C [4]: 44.4%
viability, T/C [18]: 29.3%
viability, T/C [19]: 2.19%
viability, T/C [20]: 0.13%
viability, T/C [5]: 27.1%
viability, T/C [21]: 29.6%
viability, T/C [6]: 11.8%
viability, T/C [22]: 4.55%
viability, T/C [23]: 0.39%
viability, T/C [24]: 0.1%
viability, T/C [7]: 5.09%
viability, T/C [25]: 6.32%
viability, T/C [8]: 3.38%
viability, T/C [26]: 1.67%
viability, T/C [27]: 0.15%
viability, T/C [28]: 0.09%
viability, T/C [9]: 2.45%
viability, T/C [29]: 2.76%
viability, T/C [10]: 1.56%
viability, T/C [30]: 0.62%
viability, T/C [31]: 0.14%
viability, T/C [32]: 0.12%
viability, T/C [11]: 2.24%
viability, T/C [33]: 2.09%
viability, T/C [12]: 0.73%
viability, T/C [34]: 0.23%
viability, T/C [35]: 0.23%
viability, T/C [36]: 0.19%

Nc1ccn(C2OC(CO)C(O)C2(F)F)c(=O)n1 (stereo not drawn) + Cc1cnc(CNC(=O)c2c(=O)c3ccc(N4CCCN(C)CC4)nc3n3c2sc2ccccc23)cn1
IC50 (second compound 0.0316 µM): 168 nM
IC50 (second compound 0.1 µM): 154 nM
IC50 (second compound 0.316 µM): < 31.6 nM
IC50 (second compound 1 µM): < 31.6 nM
IC50 (second compound 3.16 µM): < 31.6 nM
IC50 (second compound 10 µM): < 31.6 nM
viability, T/C [1]: 75.9%
viability, T/C [13]: 52.3%
viability, T/C [2]: 46.6%
viability, T/C [14]: 9.53%
viability, T/C [15]: 6.32%
viability, T/C [16]: 3.33%
viability, T/C [3]: 63.6%
viability, T/C [17]: 61%
viability, T/C [4]: 32.8%
viability, T/C [18]: 9.17%
viability, T/C [19]: 3.78%
viability, T/C [20]: 2.52%
viability, T/C [5]: 28.4%
viability, T/C [21]: 18.3%
viability, T/C [6]: 10.9%
viability, T/C [22]: 3.62%
viability, T/C [23]: 2.32%
viability, T/C [24]: 1.88%
viability, T/C [7]: 5.32%
viability, T/C [25]: 4.52%
viability, T/C [8]: 2.56%
viability, T/C [26]: 1.63%
viability, T/C [27]: 1.61%
viability, T/C [28]: 1.61%
viability, T/C [9]: 2.51%
viability, T/C [29]: 2.77%
viability, T/C [10]: 1.64%
viability, T/C [30]: 1.52%
viability, T/C [31]: 1.19%
viability, T/C [32]: 0.24%
viability, T/C [11]: 1.6%
viability, T/C [33]: 1.03%
viability, T/C [12]: 1.41%
viability, T/C [34]: 0.26%
viability, T/C [35]: 0.21%
viability, T/C [36]: 0.2%
